Results on one compound are retold here after patent US20080039431A1, “Method of improving plant growth by reducing viral infections” (priority 2006, published 2008).

In the experiment the test system is tomato spotted wilt virus (TSWV). The experiment can be described thus: Replicated tomato drench trial (Example 6). The format is in vivo, tomato (Lycopersicon esculentum MILL.). The following applies: prothioconazole 0.0084 g ai/plant, imidacloprid 0.01 g/plant; for Percent control of incidence of TSWV in tomatoes: Abbott's formula; for Percent incidence of TSWV in tomatoes: drench. As to the method: Cultivation—A replicated trial on tomato (Lycopersicon esculentum MILL.) was initiated in Molino, Fla. to determine if drenches of prothioconazole alone and in combination with the insecticide imidacloprid would suppress TSWV in tomato. Tomato plants, cultivar FL 47 were transplanted on April 11 into 4 rows, each 9.1 meters long, 60 plants per plot, with three replications. Treatments were applied, into a shallow bowl dug at the base of each plant, as a drench in 40 ml water per plant (6 days after transplanting) on April 17. Treatments— • Untreated—no in-furrow treatment • Imidacloprid@0.01 g imidacloprid/plant. • Prothioconazole—prothioconazole@0.0084 g active ingredient/plant. • Prothioconazole+Imidacloprid—prothioconazole@0.0084 g active ingredient/plant+imidacloprid@0.01 g imidacloprid/plant. TSWV rating—University researchers recommend buffers in TSWV testing. Therefore, the center two rows (30 plants) per plot were used for virus ratings with the outer two rows acting as buffers. TSWV incidence determinations were made based on the presence or absence of TSWV symptoms (chlorosis and stunting) per plant. The four treatments were rated at 21, 29, and 39 days after treatment. Synergy formula—The Colby formula for proof of synergy was used in Example 6. The percent incidence values were converted to percent control with Abbotts's formula (1-treated/untreated)*100. Percent control values for solo treatment X and solo treatment Y, were entered into the Colby formula. When the value determined from the plots with both treatment X and Y applied together is greater than the value determined by the Colby formula then synergy is indicated. The formula is: X+Y−(X*Y/100).

`OC(Cc1ccccc1Cl)(Cn1nc[nH]c1=S)C1(Cl)CC1` (stereo not drawn) [Prothioconazole, prothioconazole]: the “Percent control of incidence of TSWV in tomatoes” value is, setting by setting: (21 days after treatment) 54.79%; (29 days after treatment) 28.00%; (39 days after treatment) 21.18%. The “Percent incidence of TSWV in tomatoes” value reads like this: (21 days after treatment) 13.2%; (29 days after treatment) 48.6%; (39 days after treatment) 66.6%.
